{"source": "patent US20120231482A1", "about": "“METHOD, KIT OR DIAGNOSTIC FOR THE DETECTION OF REAGENTS WHICH INDUCE ALTERED CONTRACTILITY” (THE JOHNS HOPKINS UNIVERSITY, priority 2009, published 2012)", "key": {"MLC1": {"target": "T1, MLC1 (Rattus norvegicus, UniProt P02600)", "T1 construct": "using 10 μg of skeletal or cardiac myofibrils; from tissue; host or cells: skeletal muscle myofibrils", "T1 sequence (P02600 whole entry, canonical isoform)": "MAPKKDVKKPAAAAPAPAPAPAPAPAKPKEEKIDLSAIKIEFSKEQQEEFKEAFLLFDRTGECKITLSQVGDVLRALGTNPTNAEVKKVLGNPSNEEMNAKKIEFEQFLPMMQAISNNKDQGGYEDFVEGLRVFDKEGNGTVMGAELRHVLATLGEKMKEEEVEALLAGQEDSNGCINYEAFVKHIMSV", "assay": "2D gel shift western blot of skeletal myofibrils", "assay_type": "biochemical", "details": "skeletal samples", "from_the_text": "FIG. 6. MLC1 Cys81 necessary for increase in Fmax induced by treatment with HNO donors. (a) Sequence alignment comparing isoforms of rat cardiac (SEQ ID NO:16) and skeletal MLC1 (SEQ ID NO:17) in the region surrounding cardiac Cys81. (b) Steady-state force-[Ca^2+]i relations in control (o) versus NCA-treated (•) from cardiac or skeletal trabeculae indicating loss of increase in maximum force with loss of Cys81 in skeletal isoform with NCA (n=5, each group). (c) 2D Gel shift assay (non-reduced, NR and reduced, DTT) using 10 μg of skeletal or cardiac myofibrils indicating loss of higher molecular weight forms of MLC1 in skeletal HNO treated preparations while maintaining higher molecular weight form of TM (n=3).\nGel shift assay. 10 μg of rat myofibrils/treatment were diluted to 0.5 μg/μl in HEN including 0.1% (w/v) SDS and exposed to a treatment for 20 min at 37° C. Samples were diluted to 0.1 ug/ul in 1×LSD sample buffer, treated with 0, 5 or 100 mM DTT and separated by SDS PAGE. Proteins were silver stained or transferred to nitrocellulose and immunoblotted with primary antibodies for tropomyosin sarcomeric (CH1, Sigma-Aldrich Co., St. Louis, Mo., USA), actin (AC-40, Sigma-Aldrich Co., St. Louis, Mo., USA), myosin light chain 1 (MLM527, Abcam, Cambridge, Mass., USA) or myosin heavy chain (3-48, Abcam, Cambridge, Mass., USA). […]"}, "rat cardiac muscle": {"test_system": "rat cardiac muscle", "assay": "Force and [Ca2+]i measurements in cardiac trabeculae", "assay_type": "cell-based", "description": "Force and [Ca^2+]i Measurements in Cardiac Trabeculae.\nRat hearts were exposed via midsternotomy after the animals were anesthetized with intraperitoneal injection of pentobarbital (100 mg/kg), and were then rapidly excised and aorta cannulated. The hearts were perfused retrogradely (˜15 ml/min) with high K^+ Krebs-Henseleit (H-K) solution equilibrated with 95% O2 and 5% CO2. Trabeculae were quickly dissected from the right ventricles of the hearts and mounted between a force transducer and a motor arm. The muscles were superfused with K-H solution at a rate of ˜10 ml/min and stimulated at 0.5 Hz. Force was measured using a force transducer system (SI, Germany) and expressed in mN/mm^2. Sarcomere length was measured by laser diffraction. Fura-2 potassium salt was microinjected iontophoretically into one cell and allowed to spread throughout the whole muscle (via gap junctions). The epifluorescence of fura-2 was measured by exciting at 380 and 340 nm. The fluorescent light was collected at 510 nm by a photomultiplier tube (R1527, Hamamatsu). [Ca^2+]i was given by (after subtraction of the autofluorescence): [Ca^2+]i=K′d(R-Rmin)/(Rmax-R), where R is the observed ratio of fluorescence (340/380), K′d is the apparent dissociation constant, Rmax is the ratio of 340 nm/380 nm at saturating [Ca^2+], and Rmin is the ratio of 340 nm/380 nm at zero [Ca^2+]. The values of K′d, Rmax, and Rmin were determined by in vivo calibrations. Tetanization of the trabecula was achieved by addition of ryanodine (1.0 μmol/L) and by increasing the stimulus rate to 10 Hz briefly (˜3 sec) to obtain steady-state force-[Ca^2+] relations. Different levels of tetanized force will be obtained by increasing [Ca^2+] in the perfusate (up to 20-25 mmol/L). The data will be fitted with the Hill equation: F=Fmax[Ca^2+]in/(K1/2n+[Ca^2+]in), where Fmax is the maximal force. K1/2 is [Ca^2+]i at half Fmax, and n is the Hill coefficient.\n1-nitrosocyclohexylacetate (NCA) is a new and mechanistically unique HNO donor that has been recently synthesized."}, "[1]": {"details": "20˜100 μmol/L, 0.5 mmol/L [Ca2+]o"}, "[2]": {"details": "NCA 100 μmol/L, isolated cardiac muscle"}, "[3]": {"details": "in the presence of NCA, varied external Ca2+"}}, "data": [{"smiles": "CC(=O)OC1(N=O)CCCCC1", "note": "[NCA, 1-nitrosocyclohexylacetate]", "values": [{"measurement": "higher molecular weight forms of MLC1", "setting": "MLC1", "result": "absence of higher molecular weight forms of MLC1"}, {"measurement": "diastolic force", "setting": "rat cardiac muscle; [1]", "result": "no changes"}, {"measurement": "force development", "setting": "rat cardiac muscle; [1]", "result": "increases force development in a dose dependent manner"}, {"measurement": "Ca2+ transient", "setting": "rat cardiac muscle; [2]", "result": "0.39 ± 0.08", "unit": "µmol/L"}, {"measurement": "force", "setting": "rat cardiac muscle; [2]", "result": "32.3 ± 4.8", "unit": "mN/mm²"}, {"measurement": "diastolic Ca2+", "setting": "rat cardiac muscle; dose-response", "result": "increased only at high doses"}, {"measurement": "amplitude of intracellular Ca2+ transients", "setting": "rat cardiac muscle; [3]", "result": "not different from control"}, {"measurement": "systolic force at any given external Ca2+", "setting": "rat cardiac muscle; [3]", "result": "remained significantly higher"}, {"measurement": "Force-frequency relationship", "setting": "rat cardiac muscle; without rising [Ca2+]i", "result": "enhanced"}]}]}
